Read-outs that look alike come from different tables or passages of the source.
Experiments:
Chlamydomonas HPPD1 = test: HPPD activity assay; format: biochemical, Chlamydomonas reinhardtii; details: HPPD enzyme Chlamydomonas HPPD1;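 further: reaction started with 4-HPP at 0.05 mM after 30 min preincubation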
Description: The activity assay for HPPD is based on the analysis of homogentisic acid by reversed phase HPLC.
The assay mixture can contain 150 mM potassium phosphate buffer pH 7.0, 50 mM L-ascorbic acid, 100 μM Catalase (Sigma-Aldrich), 1 μM FeSO4 and 0.2 units of purified HPPD enzyme in a total volume of 505 μl. 1 unit is defined as the amount of enzyme that is required to produce 1 nmol of HGA per minute at 20° C.
The reaction is allowed to proceed for 45 min at room temperature. The reaction is stopped by the addition of 50 μl of 4.5 M phosphoric acid. The sample is filtered using a […] pore size PVDF filtration device. 5 μl of the cleared sample is analyzed on an UPLC HSS T3 column (particle size 1.8 μm, dimensions 2, 1×50 mm; Waters) by isocratic elution using 90% 20 mM NaH2PO4 pH 2.2, 10% methanol (v/v).
HGA is detected electrochemically at 750 mV (mode: DC; polarity: positive) and quantified by integrating peak areas (Empower software; Waters).
Inhibitors are dissolved in DMSO (dimethylsulfoxide) to a concentration of 0.5 mM. From this stock solution serial five-fold dilutions are prepared in DMSO, which are used in the assay. The respective inhibitor solution accounts for 1% of the assay volume. Thus, final inhibitor concentrations range from 5 μM to 320 pM, respectively. Activities are normalized by setting the uninhibited enzyme activity to 100%. IC50 values are calculated using non-linear regression.
Using methods which are described in the above examples or well known in the art, purified recombinant wild-type HPPD enzymes are characterized with respect to their kinetic properties and sensitivity towards HPPD inhibiting herbicides. Apparent michaelis constants (Km) and maximal reaction velocities (Vmax) are calculated by non-linear regression with the software GraphPad Prism 5 (GraphPad Software, La Jolla, USA) using a substrate inhibition model. […] Weighted means (by standard error) of Km and IC50 values are calculated from at least three independent experiments. The Cheng-Prusoff equation for competitive inhibition (Cheng, Y. C.; Prusoff, W. H. Biochem Pharmacol 1973, 22, 3099-3108) is used to calculate dissociation constants (Ki).
Field performance of the HPPD enzyme, which is used as a herbicide tolerance trait may depend not only on its lack of sensitivity towards HPPD inhibiting herbicides but also on its activity. To assess the potential performance of a herbicide tolerance trait a tolerance index (TI) is calculated using the following formula: […]
Easy comparison and ranking of each trait is enabled by normalizing tolerance indexes on Arabidopsis wild-type HPPD.

[1] = test system: Arabidopsis plants, transgene none (WT); test: Greenhouse herbicide spray test; format: in vivo, Arabidopsis thaliana; details: two weeks after treatment
From the text: (§1) For post emergence treatment, the test plants are first grown to a height of 3 to 15 cm, depending on the plant habit, and only then treated with the herbicides. For this purpose, the test plants are either sown directly and grown in the same containers, or they are first grown separately and transplanted into the test containers a few days prior to treatment.
(§2) Herbicide injury scoring is done 2-3 weeks after treatment and is rated on a scale of 0 to 100%, 0% being no injury and 100% being complete death.
(§3) Transgenic Arabidopsis plants were sprayed with a range of doses from 0.78-6.25 g/ha of different HPPD-inhibiting herbicides and injury evaluations were taken two weeks after treatment.

[2] = test system: transgenic Arabidopsis plants (T2) AtHPPD F381I; test: Greenhouse herbicide spray test; format: in vivo, Arabidopsis thaliana; details: two weeks after treatment
From the text: as §1, §2, §3

[3] = test system: transgenic Arabidopsis plants (T2) AtHPPD M335H, P336A, E363Q; test: Greenhouse herbicide spray test; format: in vivo, Arabidopsis thaliana; details: two weeks after treatment
From the text: as §1, §2, §3

[4] = test system: transgenic Arabidopsis plants (T2) AtHPPD M335Y, P336A, E363Q; test: Greenhouse herbicide spray test; format: in vivo, Arabidopsis thaliana; details: two weeks after treatment
From the text: as §1, §2, §3

[5] = test system: transgenic Arabidopsis plants (T2) HvHPPD L320H, P321A; test: Greenhouse herbicide spray test; format: in vivo, Arabidopsis thaliana; details: two weeks after treatment
From the text: as §1, §2, §3

[6] = test system: transgenic Arabidopsis plants (T2) PtHPPD WT (Picrophilus HPPD); test: Greenhouse herbicide spray test; format: in vivo, Arabidopsis thaliana; details: for Injury evaluation: Arabidopsis T2 PtHPPD WT, two weeks after treatment
From the text: as §1, §2, §3

[7] = test system: transgenic Arabidopsis plants (T2) HvHPPD L320H; format: in vivo, Arabidopsis thaliana; details: for Injury evaluation: Arabidopsis T2 HvHPPD L320H, two weeks after treatment
From the text: as §1, §2, §3

[8] = Table 18, no transgene, 0.78 g/ha
[9] = Table 18, no transgene, 1.56 g/ha
[10] = Table 18, no transgene, 3.125 g/ha
[11] = Table 18, no transgene, 6.25 g/ha
[12] = Table 19, no transgene, 0.78 g/ha
[13] = Table 19, no transgene, 1.56 g/ha
[14] = Table 19, no transgene, 3.125 g/ha
[15] = Table 19, no transgene, 6.25 g/ha

`CS(=O)(=O)c1ccc(C(=O)C2C(=O)CCCC2=O)c(Cl)c1COCC(F)(F)F` [Inhibitor 4, 2-[2-chloro-4-methylsulfonyl-3-(2,2,2-trifluoroethoxymethyl)benzoyl]cyclohexane-1,3-dione] was tested, and the “TI normalized to Arabidopsis HPPD” value (Chlamydomonas HPPD1) was 0.1.
`Cc1c(C(=O)c2cnn(C)c2O)ccc(S(C)(=O)=O)c1C1=NOCC1` [Inhibitor 1, [3-(4,5-dihydroisoxazol-3-yl)-2-methyl-4-methylsulfonyl-phenyl]-(5-hydroxy-1-methyl-pyrazol-4-yl)methanone] was tested, and the “TI normalized to Arabidopsis HPPD” value (Chlamydomonas HPPD1) was 1.7, the Injury evaluation [1, 8] was 89% and the Injury evaluation [1, 9] was 99%. It also gave an Injury evaluation [1, 10] of 99%, an Injury evaluation [1, 11] of 100% and an Injury evaluation [1, 12] of 85%. For the same compound, the Injury evaluation [1, 13] was 88%, the Injury evaluation [1, 14] was 96% and the Injury evaluation [1, 15] was 99%. For the same compound, the Injury evaluation ([2]; 1.56 g/ha) was 43%, the Injury evaluation ([2]; 3.125 g/ha) was 55% and the Injury evaluation ([2]; 6.25 g/ha) was 70%. For the same compound, the Injury evaluation ([3]; 0.78 g/ha) was 0%, the Injury evaluation ([3]; 1.56 g/ha) was 10% and the Injury evaluation ([3]; 3.125 g/ha) was 15%. It also gave an Injury evaluation ([3]; 6.25 g/ha) of 15%, an Injury evaluation ([4]; 0.78 g/ha) of 12% and an Injury evaluation ([4]; 1.56 g/ha) of 21%. For the same compound, the Injury evaluation ([4]; 3.125 g/ha) was 42%, the Injury evaluation ([4]; 6.25 g/ha) was 68% and the Injury evaluation ([5]; 0.78 g/ha) was 0%. It also gave an Injury evaluation ([5]; 1.56 g/ha) of 0%, an Injury evaluation ([5]; 3.125 g/ha) of 0% and an Injury evaluation ([5]; 6.25 g/ha) of 0%. The Injury evaluation ([6]; 0.78 g/ha) was 13%, the Injury evaluation ([6]; 1.56 g/ha) was 17% and the Injury evaluation ([6]; 3.125 g/ha) was 62%. The Injury evaluation ([6]; 6.25 g/ha) was 99%, the “fold less susceptible compared to the control” value ([6]; Arabidopsis expressing Picrophilus HPPD, dose of 3,125 g/ha) was 1.6 fold and the “fold tolerance compared to the control” value ([6]; Arabidopsis expressing Picrophilus HPPD, two lowest application rates) was 6.8 fold. It also gave a fold increased tolerance ([7]; Arabidopsis HvHPPD L320H, lowest concentration tested) of 6.5 fold, an Injury evaluation ([7]; 0.78 g/ha) of 13% and an Injury evaluation ([7]; 1.56 g/ha) of 57%. For the same compound, the Injury evaluation ([7]; 3.125 g/ha) was 68% and the Injury evaluation ([7]; 6.25 g/ha) was 94%.
`CS(=O)(=O)c1ccc(C(=O)C2C(=O)CCCC2=O)c([N+](=O)[O-])c1` [Inhibitor 2, 2-(4-methylsulfonyl-2-nitro-benzoyl)cyclohexane-1,3-dione] was tested, and the “TI normalized to Arabidopsis HPPD” value (Chlamydomonas HPPD1) was 0.1, the Injury evaluation [1, 8] was 78% and the Injury evaluation [1, 9] was 95%. It also gave an Injury evaluation [1, 10] of 100%, an Injury evaluation [1, 11] of 99% and an Injury evaluation [1, 12] of 93%. It also gave an Injury evaluation [1, 13] of 99%, an Injury evaluation [1, 14] of 100% and an Injury evaluation [1, 15] of 100%. The Injury evaluation ([2]; 1.56 g/ha) was 20%, the Injury evaluation ([2]; 3.125 g/ha) was 25% and the Injury evaluation ([2]; 6.25 g/ha) was 78%. It also gave an Injury evaluation ([3]; 0.78 g/ha) of 3%, an Injury evaluation ([3]; 1.56 g/ha) of 0% and an Injury evaluation ([3]; 3.125 g/ha) of 13%. The Injury evaluation ([3]; 6.25 g/ha) was 12%, the Injury evaluation ([4]; 0.78 g/ha) was 5% and the Injury evaluation ([4]; 1.56 g/ha) was 12%. The Injury evaluation ([4]; 3.125 g/ha) was 21%, the Injury evaluation ([4]; 6.25 g/ha) was 38% and the Injury evaluation ([5]; 0.78 g/ha) was 0%. For the same compound, the Injury evaluation ([5]; 1.56 g/ha) was 0%, the Injury evaluation ([5]; 3.125 g/ha) was 0% and the Injury evaluation ([5]; 6.25 g/ha) was 0%. For the same compound, the Injury evaluation ([6]; 0.78 g/ha) was 0%, the Injury evaluation ([6]; 1.56 g/ha) was 0% and the Injury evaluation ([6]; 3.125 g/ha) was 3%. The Injury evaluation ([6]; 6.25 g/ha) was 0%, the “leaf damage (in words)” value ([6]; Arabidopsis overexpressing Picrophilus HPPD (SEQ-ID:40), tested application rates 0.78-6.25 g/ha) was “no leaf damages could be observed” and the “resistance (in words)” value ([7]; Arabidopsis HvHPPD L320H, 0.78-6.25 g/ha) was “resistant”. The Injury evaluation ([7]; 0.78 g/ha) was 0%, the Injury evaluation ([7]; 1.56 g/ha) was 0% and the Injury evaluation ([7]; 3.125 g/ha) was 0%. The Injury evaluation ([7]; 6.25 g/ha) was 0%.
For `COCCOCc1nc(C(F)(F)F)ccc1C(=O)C1=C(O)C2CCC(C2)C1=O` (centres unmarked) [Inhibitor 3, 2-hydroxy-3-[2-(2-methoxyethoxymethyl)-6-(trifluoromethyl)pyridine-3-carbonyl]bicyclo[3.2.1]oct-2-en-4-one], the “TI normalized to Arabidopsis HPPD” value (Chlamydomonas HPPD1) was 0.1.

— US12065654B2, “Plants having increased tolerance to herbicides” (BASF SE, priority 2014, dated 2024)
